Here are results for 6 molecules from US4455315A, “N-(Difluoromethoxy substituted phenyl)-dichloromaleimides used in agricultural and horticultural fungicidal methods” (Showa Denko Kabushiki Kaisha, priority 1980, dated 1984).

For data set [1], the system named is potted apples (variety: Star King). Put plainly: Test of Phytotoxicity to Apples. The conditions noted are these: 75% Wettable Powders, dilution × 750, 600 l/10 a, two weeks.
Method: The resulting solution of wettable powders is sprayed, in an amount corresponding to 600 l/10a per pot, on potted apples (variety: Star King) immediately after fresh leaves are unfolded. After air-drying, the potted apples are allowed to stand in a greenhouse. Two weeks after the spray treatment, the phytotoxicity, of the compound according to the present invention, to the potted apples is examined.
For comparison, the above test is also carried out using a reference compound (fluoroimide) and plain water.
The subject of data set [2] is potted pears (variety: Niju-seiki). Put plainly: Test of Phytotoxicity to Pears. It counts as in vivo, pear. The conditions noted are these: 75% Wettable Powders, two weeks. An excerpt: Test of Phytotoxicity to Pears
After air-drying, the potted pears are allowed to stand in a greenhouse.

For a further data set, the system named is crops and trees. The conditions noted are these: cited from earlier work.
The next data set deals with plant pathogens. The conditions noted are these: U.S. Pat. No. 2,444,536; cited from earlier work.
Data set [3] has as its system potted young oranges (variety: Unshu). The experiment in a line: Phytotoxicity of treating compound, Citrus Melanose test. As to conditions: 500 ppm.
Data set [4] relates to Diaporthe citri. The experiment in a line: Test of Residual Activity against Citrus Melanose. Type of data set: in vivo. The conditions noted are these: 1000 ppm, 23 mm/hr of rain; for Infested Leaves (%): 24 days after inoculation; for Infestation Rate: 24 days, (Σnf/4N)×100; for Number of Leaves Showing Each Infestation Index: 0: index 0 = 0-25% infested area; for Number of Leaves Showing Each Infestation Index: 1: index 1 = 26-50% infested area; for Number of Leaves Showing Each Infestation Index: 2: index 2 = 51-75% infested area; for Number of Leaves Showing Each Infestation Index: 3: index 3 = 76-90% infested area; for Number of Leaves Showing Each Infestation Index: 4: index 4 = 91-100% infested area.

Data set [5] relates to potted young oranges (variety: Unshu). Put plainly: Phytotoxicity of treating compound, residual activity test. As to conditions: 1000 ppm, 23 mm/hr of rain.
Data set [6] relates to potted potatoes (variety: Chippewa). The conditions noted are these: 500 ppm.
The next data set deals with Phytophthora infestans. It counts as in vivo. As to conditions: 500 ppm.
Data set [7] has as its system Diaporthe citri. Put plainly: Citrus Melanose-controlling Test. Type of data set: in vivo. As to conditions: 500 ppm; for Infested Leaves (%): 24 days after inoculation; for Infestation Rate / Number of Leaves Showing Infestation Index 0 / Number of Leaves Showing Infestation Index 1 / Number of Leaves Showing Infestation Index 2 / Number of Leaves Showing Infestation Index 3 / Number of Leaves Showing Infestation Index 4: 24 days; for Infestation Rate: (Σnf/4N)×100; for Number of Leaves Showing Infestation Index 0: index 0 = 0-25% infested area; for Number of Leaves Showing Infestation Index 1: index 1 = 26-50% infested area; for Number of Leaves Showing Infestation Index 2: index 2 = 51-75% infested area; for Number of Leaves Showing Infestation Index 3: index 3 = 76-90% infested area; for Number of Leaves Showing Infestation Index 4: index 4 = 91-100% infested area.

For the next data set, the system named is Venturia inaequalis. The experiment in a line: Apple Scab-controlling Test. It counts as in vivo. As to conditions: 500 ppm.
The subject of data set [8] is potted young oranges (variety: Unshu). The experiment in a line: Phytotoxicity of treating compound, Citrus Scab test. The conditions noted are these: 250 ppm.
Method: (§1) The resulting solution is sprayed, in an amount corresponding to 600 l/10a per pot, on potted young oranges (variety: Unshu) immediately after fresh leaves are unfolded. After one day, the potted young oranges are inoculated with Elsinoe fawcetti, by spraying a suspension of crushed hyphae thereof containing 50 crushed hyphae per microscopic field (magnification: X100). The suspension is prepared by culturing Elsinoe fawcetti on potato medium at a temperature of 25° C. for 30 days to form hyphae and suspending it in sterilized water.
(§2) After inoculation, the potted young oranges are allowed to stand at a temperature of 25° C. in a moist room for two days and then transferred to a greenhouse. Twenty-three days after inoculation, the leaf infested by citrus scab is examined, i.e., number of pathologic spots on a leaf is examined and the numbers of leaves infested by cirtrus scab are counted. Then, an infestation rate is calculated according to the following equation:
The test system of data set [9] is potted apples (variety: Star King). The experiment in a line: Phytotoxicity of treating compound, Apple Scab test. The conditions noted are these: 500 ppm.
For the next data set, the system named is Elsinoe fawcetti. The experiment in a line: Citrus Scab-controlling Test. As to conditions: 250 ppm.
Data set [10] has as its system potted young pears (variety: Niju-seiki). The experiment in a line: Phytotoxicity of treating compound, Pear Black Spot test. The conditions noted are these: 500 ppm, damaged area on leaves.
Method: The resulting solution is sprayed on unfolded leaves of potted young pears (variety: Niju-seiki) in an amount corresponding to 600 l/10a per pot. After air-drying, the unfolded leaves are inoculated with Alternaria kikuchiana, by spraying a suspension of conidia thereof containing 30 conidia per microscopic field (magnification: X200).
After inoculation, the potted young pears are allowed to stand at a temperature of 27° C. in a moist room for one day and then transferred to a greenhouse. Six days after inoculation, the leaf area infested by pear black spot, i.e., the area of pathologic spots on a leaf is examined on 5 unfolded leaves per pot and an average infestation rate is then calculated.
*The phytotoxicity of the treating compound is evaluated according to the
Data set [11] relates to Alternaria kikuchiana. The experiment in a line: Pear Black Spot-controlling Test. As to conditions: 500 ppm, six days after inoculation.
In data set [12] the test system is Alternaria kikuchiana. Put plainly: Spore-germination Inhibiting Test. As to conditions: 10 ppm, 27° C., 20 hours. Type of data set: cell-based. On the procedure: Spore-germination Inhibiting Test for Alternaria kukuchiana An apricot medium is inoculated with Alternaria kikuchiana and incubated at a temperature of 27° C. for 7-10 days to form conidia on the medium. […] 0.02 Ml of the prepared spore suspension containing the compound according to the present invention is dropped on a slide glass and incubated at a temperature of 27° C. under moist conditions for 20 hours. Thereafter, whether or not the spores germinate is examined under a microscope and the spore-germination rate is then calculated.

The mark [13] stands for this setting: index 3 = 51-100% infested area.

Method for Elsinoe fawcetti: as §1, §2
Infestation Rate=(Σnf/3N)×100
wherein n is the number of the infested leaves, f is an infestation index and N is the total number of the examined leaves. The infestation index is as follows.
For comparison, the above test is also carried out using a reference compound (benomyl) and plain water.

Regarding `O=C1C(Cl)=C(Cl)C(=O)N1c1ccc(F)cc1` [fluoroimide, N(p-Fluorophenyl)-2,3-dichloromaleimide], the “Phytotoxicity of Treating Compound” value in [1] was “+ (6-25%)”; in data set [2] (dilution × 500, 600 l/10 a), “++ (26-50%)”; in [2] (dilution × 750, 600 l/10 a), “+ (6-25%)”. Further, the phytotoxicity result in the data set on crops and trees (pear trees, strawberries, beans, and very many other crops) is recorded as “severe phytotoxicity”. The leaf-burn entry with crops and trees (wide variety of crops and trees) is recorded as “liable to cause leaf-burn”.

In the case of `O=C1C=CC(=O)N1c1ccccc1` [N-phenylmaleimide], the fungicidal effect result in the data set with plant pathogens is reported as “has a fungicidal effect”.

With “ZnMnEthylenebisdithiocarbamate [mancozeb]”, in [3], the “Phytotoxicity of Treating Compound” value is on record as “- (0%)”. In the data set on Diaporthe citri [4], the “Infested Leaves (%)” value was determined as 0%, the “Infestation Rate” value stood at 0, the “Number of Leaves Showing Each Infestation Index: 0” value amounted to 159 leaves and the “Number of Leaves Showing Each Infestation Index: 1” value came out at 0 leaves. In the data set on Diaporthe citri [4], the “Number of Leaves Showing Each Infestation Index: 2” value was determined as 0 leaves, the “Number of Leaves Showing Each Infestation Index: 3” value is recorded as 0 leaves and the “Number of Leaves Showing Each Infestation Index: 4” value was determined as 0 leaves. Moreover, the “Phytotoxicity of Treating Compound” value in data set [5] is recorded as “- (0%)”. Also, the “Phytotoxicity of Treating Compound” value in [6] is given as “- (0%)”. The “Infested Leaves (%)” value in the data set with Phytophthora infestans (six days after inoculation) was determined as 0%. Also, in the data set on Phytophthora infestans (six days, (Σnf/3N)×100), the “Infestation Rate” value amounted to 0. In addition, the “Number of Leaves Showing Each Infestation Index: 0” value in the data set on Phytophthora infestans (index 0 = 0% infested area) amounted to 20 leaves. For the same molecule, the “Number of Leaves Showing Each Infestation Index: 1” value in the data set with Phytophthora infestans (index 1 = 1-25% infested area) came out at 0 leaves. For the same molecule, the “Number of Leaves Showing Each Infestation Index: 2” value in the data set on Phytophthora infestans (index 2 = 26-50% infested area) came to 0 leaves. In the data set with Phytophthora infestans (setting [13]), the “Number of Leaves Showing Each Infestation Index: 3” value turned out to be 0 leaves. In the data set with Diaporthe citri [7], the “Infested Leaves (%)” value is 0%, the “Infestation Rate” value came out at 0, the “Number of Leaves Showing Infestation Index 0” value came to 204 leaves and the “Number of Leaves Showing Infestation Index 1” value is 0 leaves. For the same molecule, in the data set on Diaporthe citri [7], the “Number of Leaves Showing Infestation Index 2” value was found to be 0 leaves, the “Number of Leaves Showing Infestation Index 3” value was 0 leaves and the “Number of Leaves Showing Infestation Index 4” value stood at 0 leaves.

Regarding `CCCCNC(=O)n1c(NC(=O)OC)nc2ccccc21` [benomyl, Methyl-1-(butylcarbamoyl)-2-benzimidazolecarbamate], the “Infested Leaves (%)” value in the data set with Venturia inaequalis (seven days after inoculation) was 0%; with Elsinoe fawcetti (23 days after inoculation), 0.6%. The “Infestation Rate” value with Venturia inaequalis (seven days, (Σnf/3N)×100) is given as 0; in the data set on Elsinoe fawcetti (23 days, (Σnf/3N)×100) it was 0.2. Further, the “Number of Leaves Showing Each Infestation Index: 0” value in the data set on Venturia inaequalis (index 0 = 0% infested area) worked out at 25 leaves; in the data set with Elsinoe fawcetti (index 0 = 0 spots per leaf), 328 leaves. Further, the “Number of Leaves Showing Each Infestation Index: 1” value in the data set with Venturia inaequalis (index 1 = 1-25% infested area) is 0 leaves; in the data set with Elsinoe fawcetti (index 1 = 1-3 spots per leaf), 2 leaves. Further, the “Number of Leaves Showing Each Infestation Index: 2” value in the data set on Venturia inaequalis (index 2 = 26-50% infested area) and in the data set on Elsinoe fawcetti (index 2 = 4-10 spots per leaf) was 0 leaves each time. Moreover, the “Number of Leaves Showing Each Infestation Index: 3” value in the data set on Venturia inaequalis (setting [13]) and in the data set on Elsinoe fawcetti (index 3 = ≥11 spots per leaf) was 0 leaves each time. In addition, the “Phytotoxicity of Treating Compound” value in data set [8] and in data set [9] was “- (0%)” throughout.

With `O=C1C(Cl)=C(Cl)C(=O)N1c1ccccc1OC(F)F` [compound 1, 2,3-dichloro-N-(o-difluoromethoxyphenyl)maleimide], the “Phytotoxicity of Treating Compound” value in data set [10] is on record as “± (1-5%)”. Moreover, the “Phytotoxicity of Treating Compound” value in [3] is listed as “- (0%)”. In the data set on Diaporthe citri [4], the “Infested Leaves (%)” value was 22%, the “Infestation Rate” value amounted to 7, the “Number of Leaves Showing Each Infestation Index: 0” value was 122 leaves and the “Number of Leaves Showing Each Infestation Index: 1” value came out at 27 leaves. Moreover, in the data set on Diaporthe citri [4], the “Number of Leaves Showing Each Infestation Index: 2” value came to 6 leaves, the “Number of Leaves Showing Each Infestation Index: 3” value stood at 1 leaves and the “Number of Leaves Showing Each Infestation Index: 4” value is 0 leaves. The “Phytotoxicity of Treating Compound” value in [5] is “± (1-5%)”. In addition, the “Average Infestation Rate (%) (Based on infested area)” value with Alternaria kikuchiana [11] is listed as 9%. In the data set on Alternaria kikuchiana [12], the “Spore-germination Rate (%)” value was 7%. For the same molecule, in the data set with Diaporthe citri [7], the “Infested Leaves (%)” value was determined as 0.5%, the “Infestation Rate” value amounted to 0.1, the “Number of Leaves Showing Infestation Index 0” value came out at 221 leaves and the “Number of Leaves Showing Infestation Index 1” value turned out to be 1 leaves. For the same molecule, in the data set with Diaporthe citri [7], the “Number of Leaves Showing Infestation Index 2” value stood at 0 leaves, the “Number of Leaves Showing Infestation Index 3” value stood at 0 leaves and the “Number of Leaves Showing Infestation Index 4” value amounted to 0 leaves.

For `COc1ccc(N2C(=O)C(Cl)=C(Cl)C2=O)cc1` [compound 9], the “Phytotoxicity of Treating Compound” value in data set [10] is “± (1-5%)”. The “Phytotoxicity of Treating Compound” value in data set [3] is given as “- (0%)”. Moreover, in the data set on Diaporthe citri [4], the “Infested Leaves (%)” value was found to be 36%, the “Infestation Rate” value was 12, the “Number of Leaves Showing Each Infestation Index: 0” value stood at 113 leaves and the “Number of Leaves Showing Each Infestation Index: 1” value came out at 45 leaves. In the data set on Diaporthe citri [4], the “Number of Leaves Showing Each Infestation Index: 2” value turned out to be 18 leaves, the “Number of Leaves Showing Each Infestation Index: 3” value was found to be 1 leaves and the “Number of Leaves Showing Each Infestation Index: 4” value is 0 leaves. Also, the “Phytotoxicity of Treating Compound” value in data set [5] is reported as “- (0%)”. Also, the “Average Infestation Rate (%) (Based on infested area)” value in the data set with Alternaria kikuchiana [11] is listed as 28%. Besides, the “Spore-germination Rate (%)” value in the data set on Alternaria kikuchiana [12] came to 9%. In addition, in the data set with Diaporthe citri [7], the “Infested Leaves (%)” value is listed as 98%, the “Infestation Rate” value is 43, the “Number of Leaves Showing Infestation Index 0” value is recorded as 5 leaves and the “Number of Leaves Showing Infestation Index 1” value is listed as 86 leaves. Further, in the data set with Diaporthe citri [7], the “Number of Leaves Showing Infestation Index 2” value is 115 leaves, the “Number of Leaves Showing Infestation Index 3” value is recorded as 30 leaves and the “Number of Leaves Showing Infestation Index 4” value worked out at 0 leaves.
